Key:
[1] = DPPH radical scavenging assay; type: biochemical; details: NS = not statistically significant
Procedure: The method of assessing the antioxidant capacity through the binding of the stable DPPH. radical was performed for the first time by Brand-Williams et al. in 1995 (Brand-William, W. et al., Lebensm Wiss Technol, 1995, 28: 25-30, “Use of a free radical method to evaluate antioxidant activity”). The method used herein is a variation of the original method and is one of the most characteristic and simple methods for the initial assessment of the antioxidant activity of antioxidant molecules or extracts rich in compounds with antioxidant properties.
The assessment of antioxidant capacity is based on the interaction of the tested molecules with the stable radical of 2,2-diphenyl-1-picrylydrazyl (DPPH). The DPPH. radical can be inactivated either by the addition of an electron or by a hydrogen atom. It is a stable organic nitrogen radical that is purple in color and absorbs at 517 nm. When a substance with antioxidant activity is added to the radical solution, then 2,2-diphenyl-1-picrylydrazyl (DPPH.) is reduced by the addition of a hydrogen atom (or electron) and converted to 2,2-diphenyl-1-picrylhydrazine (DPPH) which has a yellow color, resulting in reduction to the visual absorption (FIG. 2).
The effects of GS compounds on DPPH radical was evaluated as described previously (Spanou, C et al., Anticancer Research, 2007, 27: 3403-3410). Briefly, the assay was carried out in 1 mL of methanol containing 100 μM freshly made DPPH in methanol and the tested GS compound at different concentrations. The contents were vigorously mixed, incubated at room temperature in the dark for 20 minutes and the absorbance was read at 517 nm using a Hitachi U-1500 Spectrophotometer (San Jose, USA). In each experiment, the tested extract alone in methanol was used as blank and DPPH alone in methanol was used as control. […] The radical scavenging capacity (RSC) of the tested extracts was expressed as a percentage of DPPH elimination calculated according to the following equation: % RSC=[(absorbance of control−absorbance of GS compound)/absorbance of control]×100.

[2] = Superoxide anion radical scavenging assay (NBT reduction); type: biochemical; details: NS = not statistically significant
Source text: These radicals may also play an important role in the peroxidation of unsaturated fatty acids and possibly other susceptible substances.
Under aerobic conditions, superoxide anion radicals are generated nonenzymatically in a NADH-PMS system by oxidation of […] (NADH) with phenazine methosulphate (PMS) in the presence of dissolved oxygen. (See, Nimse, Satish B. et al., RSC Adv, 2015, 5: 27986, “Free radicals, natural antioxidants, and their reaction mechanisms”). The superoxide anion radical O2.^− reduces the pale yellow colored nitroblue tetrazolium cation (NBT^2+) to a blue colored formazan dye, which is measured spectrophotometrically at 560 nm. The decrease of absorbance at 560 nm with antioxidant indicates the consumption of […] in the reaction mixture (FIG. 4).
The superoxide anion radical scavenging activity of each GS compound was determined using the nitro-blue tetrazolium (NBT) reduction method (Cos, Paul et al., J Nat Prod. 1998; 61(1): 71-76). The results were calculated as the percentage of inhibition according to the following formula: I (%)=100 [1−(S−SB)/(C−CB)] Where S, SB, C, and CB are the absorbance of the sample, the blank sample, the control, and the blank control, respectively.

[3] = system: HCT-116 colon cancer tumor; experiment: HCT116 xenograft mouse model; type: in vivo, nu/nu mice; details: 20 mg/kg i.p. every 5 days, until 20 days post-treatment
Procedure: The effect of GS27 on colon cancer tumor growth in mice was evaluated in a HCT116 xenograft mouse model. HCT-116 is a human colorectal cancer cell line that has a mutation in RAS proto-oncogene.
Xenograft tumors were generated by injecting HCT-116 colon cancer cells (5×10^6) into the right flank of female nu/nu mice (Charles River Laboratories). All mice developed tumors in 10 days with size of approximately 100 mm3. For each experiment, mice were randomly distributed into equal groups (4 mice per group) that were untreated, or treated by intraperitoneal injections every 5 days with 20 mg/kg GS27 or GS19 (oleocanthal). Tumor volume (average, SD) was evaluated until 20 days post-treatment.

in vivo = details: female, NOD SCID (NOD.CB17-Prkdc^scid/J), mouse, ip
Source text: The guidelines of the NCI DTP (National Cancer Institute, Developmental Therapeutics Program, NIH, USA) for acute toxicity testing (DOI: 10.1021/acs.biomac.8b00959) were followed to determine Maximum Tolerated Dose (MTD) of GS27.
For the MTD studies, NOD.CB 17-Prkdc^scid/J mice (also known as NOD SCID mice) were used. All animals for in vivo experiments were kept under specific pathogen-free (SPF) conditions in Type II Long cages, at the experimental unit of our department (Department of Pharmacology, EL42-BIO_Exp03, protocol license 5542/22806-30/11/2015) in a climate-regulated environment (21±1° C.; 50-55% relative humidity) under a 12 h/12 h (lights on at 7:00 AM) light/dark cycle and allowed ad libitum food and water. Female and male mice, 6-8 weeks old, were used in the studies described here. GS27 compound was administered to 15 female mice at two different doses. GS at either 100 or 50 mg/kg was administered in a single dose via i.p. injection in pre-weighed mice. One group of five mice received the carrier and served as controls. […] Mice were also weighed twice weekly for two weeks.

Row | DPPH Radical Scavenging Assay IC50 [1] [μg extract/mL] | Superoxide Anion Radical Scavenging Assay IC50 [2] [μg extract/mL] | Structure (SMILES) | tumor size inhibition, HCT-116 colon cancer tumor growth [3] | MTD at 2 weeks (in vivo) [mg/kg] | dose well tolerated for two weeks (in vivo; 2 weeks)
1 | 5.9 | 23.2 | C/C=C1/[C@H](OC2OC(CO)C(O)C(O)C2O)OC=C(C(=O)O)[C@H]1CC(=O)OCCc1ccc(O)c(O)c1 (stereo in doubt) [GS6, (2S,4S,E)-4-(2-(3,4-dihydroxyphenethoxy)-2-oxoethyl)-3-ethylidene-2{[(2R,3S,4R,5R,6S)-3,4,5-trihydroxy-6-(hydroxymethyl)tetrahydro-2H-pyran-2-yl]oxy}-3,4dihydro-2H-pyran-5-carboxylic acid] |  |  | 
2 | 13.8 | 40.5 | C/C=C1/[C@H](O[C@@H]2O[C@H](CO)[C@@H](O)[C@H](O)[C@H]2O)OC=C(C(=O)OC)[C@H]1CC(=O)OCCc1ccc(O)c(O)c1 [GS1, oleuropein] |  |  | 
3 | 11.5 |  | C/C=C(/C=O)[C@@H](CC=O)CC(=O)OCCc1ccc(O)c(O)c1 [GS17, (3S,4E)-4-formyl-3-(2-oxoethyl)-4-hexenoic acid 2-(3,4-dihydroxyphenyl)ethyl ester, reference compound] |  |  | 
4 |  |  | C/C=C(/C=O)[C@@H](CC=O)CC(=O)OCCc1ccc(O)cc1 [GS19, (3S,4E)-4-formyl-3-(2-oxoethyl)-4-hexenoic acid 2-(4-hydroxyphenyl)ethyl ester, reference compound] | did not show any significant effect |  | 
5 |  |  | C/C=C(/C=O)[C@@H](CC=O)CC(=O)SCCc1ccccc1 [GS27, S-phenethyl (3S,4E)-4-formyl-3-(2-oxoethyl)hex-4-enethioate] | > 60% | > 200 | up to 100 mg/kg

From US12414960B2, “Analogues of oleuropein and oleacein and uses thereof” (Attica Sciences Ltd., priority 2020, dated 2025)
